Laboratory results as given in ChEMBL document CHEMBL5241112, “Insights into the recent progress in the medicinal chemistry of pyranopyrimidine analogs” (RSC Med Chem, 2022).
Values after ≈ are worked out from the molar mass of the structure shown.

Experiments:
[1] = tested on: Mycobacterium tuberculosis; test: Antitubercular activity against Mycobacterium tuberculosis H37Rv assessed as bacterial growth inhibition incubated for 24 hrs by MABA assay; type: functional
[2] = tested on: Bacillus cereus; test: Antimicrobial activity against Bacillus cereus ATCC14579 assessed as diameter of inhibition zone at 20 mg/ml incubated for 24 hrs by disk diffusion method; type: functional; settings: read-out: DIZ
[3] = tested on: Staphylococcus aureus; test: Antimicrobial activity against Staphylococcus aureus NCTC7447 assessed as diameter of inhibition zone at 20 mg/ml incubated for 24 hrs by disk diffusion method; type: functional; settings: read-out: DIZ
[4] = tested on: Klebsiella pneumoniae; test: Antimicrobial activity against Klebsiella pneumoniae UC57 assessed as diameter of inhibition zone at 20 mg/ml incubated for 24 hrs by disk diffusion method; type: functional; settings: read-out: DIZ
[5] = tested on: Pseudomonas aeruginosa; test: Antimicrobial activity against Pseudomonas aeruginosa ATCC 27853 assessed as diameter of inhibition zone at 20 mg/ml incubated for 24 hrs by disk diffusion method; type: functional; settings: read-out: DIZ
[6] = tested on: Escherichia coli; test: Antimicrobial activity against Escherichia coli ATCC 14169 assessed as diameter of inhibition zone at 20 mg/ml incubated for 24 hrs by disk diffusion method; type: functional; settings: read-out: DIZ
[7] = Antioxidant activity assessed as DPPH radical scavenging activity incubated for 20 mins by spectrophotometric analysis; type: functional; design: concentration or dose not given beside the values
[8] = Antioxidant activity assessed as hydroxyl radical scavenging activity incubated for 5 mins by spectrophotometric analysis; type: functional; design: concentration or dose not given beside the values
[9] = tested on: Staphylococcus aureus; test: Antibacterial activity against Staphylococcus aureus assessed as diameter of inhibition zone; type: functional
[10] = tested on: Bacillus subtilis; test: Antibacterial activity against Bacillus subtilis assessed as diameter of inhibition zone; type: functional
[11] = tested on: Escherichia coli; test: Antibacterial activity against Escherichia coli assessed as diameter of inhibition zone; type: functional
[12] = tested on: Salmonella typhimurium; test: Antibacterial activity against Salmonella typhimurium assessed as diameter of inhibition zone; type: functional, Salmonella enterica subsp. enterica serovar Typhimurium
[13] = tested on: HepG2; test: Anticancer activity against human HepG2 cells assessed as reduction in cell viability; type: functional, cell-based
[14] = tested on: MCF7; test: Anticancer activity against human MCF7 cells assessed as reduction in cell viability; type: functional, cell-based
[15] = tested on: HCT-116; test: cells; settings: Homo sapiens

SMILES: NC(=O)c1cnccn1 [PYRAZINAMIDE]
- MIC [1]: 3.12 µg/mL (≈ 25.4 µM)

SMILES: O=c1nc2c3c([nH]1)Oc1ccc(Cl)cc1C3c1c(c3ccccc3oc1=O)O2 (centres undefined)
- MIC [1]: 6.25 µg/mL (≈ 15.9 µM)

SMILES: N#CC1=C(N)Oc2[nH]c(=O)[nH]c(=O)c2C1c1ccccc1[N+](=O)[O-] (centres undefined)
- zone of inhibition at 20000 µg/mL [2]: 10 mm
- zone of inhibition at 20000 µg/mL [3]: 5 mm
- zone of inhibition at 20000 µg/mL [4]: 6 mm
- zone of inhibition at 20000 µg/mL [5]: 9 mm
- zone of inhibition at 20000 µg/mL [6]: 11 mm

SMILES: COc1ccc2c(c1)C1c3c(nc(=O)[nH]c3O2)Oc2c1c(=O)oc1ccccc21 (centres undefined)
- MIC [1]: 50 µg/mL (≈ 129 µM)

SMILES: COc1ccccc1C1C(C#N)=C(N)Oc2[nH]c(=O)[nH]c(=O)c21 (centres undefined)
- zone of inhibition at 20000 µg/mL [2]: 11 mm
- zone of inhibition at 20000 µg/mL [3]: 15 mm
- zone of inhibition at 20000 µg/mL [4]: 13 mm
- zone of inhibition at 20000 µg/mL [5]: 7 mm
- zone of inhibition at 20000 µg/mL [6]: 9 mm

SMILES: O=c1[nH]c2c(c(=O)[nH]1)Oc1c(c(=O)oc3ccccc13)C2c1ccc(F)cc1 (centres undefined)
- Activity [7]: 70.1%
- Activity [8]: 62.1%

SMILES: CN[C@@H]1[C@H](O[C@H]2[C@H](O[C@H]3[C@H](O)[C@@H](O)[C@H](N=C(N)N)[C@@H](O)[C@@H]3N=C(N)N)O[C@@H](C)[C@]2(O)C=O)O[C@@H](CO)[C@H](O)[C@H]1O [STREPTOMYCIN]
- zone of inhibition at 20000 µg/mL [2]: 16 mm
- zone of inhibition at 20000 µg/mL [3]: 18 mm
- zone of inhibition at 20000 µg/mL [4]: 18 mm
- zone of inhibition at 20000 µg/mL [5]: 16 mm
- zone of inhibition at 20000 µg/mL [6]: 18 mm
- diameter of the inhibition zone (DIZ) [9]: 16 mm
- diameter of the inhibition zone (DIZ) [10]: 18 mm
- diameter of the inhibition zone (DIZ) [11]: 20 mm
- diameter of the inhibition zone (DIZ) [12]: 18 mm
- MIC [1]: 6.25 µg/mL (≈ 10.7 µM)

SMILES: O=c1nc2c3c([nH]1)Oc1ccc4ccccc4c1C3c1c(c3ccccc3oc1=O)O2 (centres undefined)
- MIC [1]: 25 µg/mL (≈ 61.2 µM)

SMILES: COc1ccc(C2C(C#N)=C(NC(C)=O)Oc3[nH]c(=O)[nH]c(=O)c32)cc1 (centres undefined)
- IC50 [13]: 2090 nM
- IC50 [14]: 2430 nM
- IC50 [15]: 2610 nM

SMILES: COc1ccc(C2c3[nH]c(=O)[nH]c(=O)c3Oc3c2c(=O)oc2ccccc32)c(O)c1 (centres undefined)
- Activity [7]: 59.1%
- Activity [8]: 54.3%

SMILES: N#CC1=C(N)Oc2[nH]c(=O)[nH]c(=O)c2C1c1ccccc1Cl (centres undefined)
- diameter of the inhibition zone (DIZ) [9]: 20 mm
- diameter of the inhibition zone (DIZ) [10]: 18 mm
- diameter of the inhibition zone (DIZ) [11]: 14 mm
- diameter of the inhibition zone (DIZ) [12]: 18 mm

SMILES: N#CC1=C(N)Oc2[nH]c(=O)[nH]c(=O)c2C1c1cccc(O)c1 (centres undefined)
- zone of inhibition at 20000 µg/mL [2]: 10 mm
- zone of inhibition at 20000 µg/mL [3]: 15 mm
- zone of inhibition at 20000 µg/mL [4]: 8 mm
- zone of inhibition at 20000 µg/mL [5]: 15 mm
- zone of inhibition at 20000 µg/mL [6]: 14 mm

SMILES: O=c1[nH]c2c(c(=O)[nH]1)Oc1c(c(=O)oc3ccccc13)C2c1c(Cl)cccc1Cl (centres undefined)
- Activity [7]: 71.2%
- Activity [8]: 65.4%

SMILES: O=c1nc2c3c([nH]1)Oc1cc(O)ccc1C3c1c(c3ccccc3oc1=O)O2 (centres undefined)
- MIC [1]: 50 µg/mL (≈ 134 µM)

SMILES: O=c1nc2c3c([nH]1)Oc1ccc(O)cc1C3c1c(c3ccccc3oc1=O)O2 (centres undefined)
- MIC [1]: 50 µg/mL (≈ 134 µM)

SMILES: O=c1[nH]c2c(c(=O)[nH]1)Oc1c(c(=O)oc3ccccc13)C2c1ccccc1O (centres undefined)
- Activity [7]: 59.1%
- Activity [8]: 54.3%

SMILES: COc1ccc(C2C(C#N)=C(NC(=O)/C=C/C(=O)O)Oc3[nH]c(=O)[nH]c(=O)c32)cc1 (centres undefined)
- IC50 [13]: 2090 nM
- IC50 [14]: 2430 nM
- IC50 [15]: 2610 nM

SMILES: N#CC1=C(N)Oc2[nH]c(=O)[nH]c(=O)c2C1c1ccc([N+](=O)[O-])cc1 (centres undefined)
- zone of inhibition at 20000 µg/mL [2]: 11 mm
- zone of inhibition at 20000 µg/mL [3]: 4 mm
- zone of inhibition at 20000 µg/mL [4]: 4 mm
- zone of inhibition at 20000 µg/mL [5]: 3 mm
- zone of inhibition at 20000 µg/mL [6]: 12 mm
- diameter of the inhibition zone (DIZ) [9]: 16 mm
- diameter of the inhibition zone (DIZ) [10]: 18 mm
- diameter of the inhibition zone (DIZ) [11]: 16 mm
- diameter of the inhibition zone (DIZ) [12]: 14 mm

SMILES: O=c1nc2c3c([nH]1)Oc1ccccc1C3c1c(c3ccccc3oc1=O)O2 (centres undefined)
- MIC [1]: 12.5 µg/mL (≈ 34.9 µM)
